Laboratory results as given in patent publication US5196415A, “5-aminocarbonyl-5H-dibenzo[a.d]cyclohepten-5,10-imines for treatment of epilepsy and cocaine addiction” (The United States of America as represented by the …, priority 1992, dated 1993).

Columns and labels:
[1] = tested on: phencyclidine binding sites in the central nervous system; settings: in words; cited from earlier work
[2] = in words; cited from earlier work
[3] = compared to 17% who received a placebo; cited from earlier work
[4] = in words; cited from earlier work; remark: listed apart in the source
[5] = drug induced motor toxicity, inverted screen test; settings: mouse, in vivo, ip, mice
Procedure: (§1) Compound 1 was administered intraperotoneally to male CF-1 type mice (20-25 g) with a saline solution carrier. The dose effect behavior was determined by the administration of six different doses of each compound, treating eight mice at each dose. After a period of fifteen minutes, the mice were subjected to corneal application of electroshock (30 mA at 50 Hz for 0.1 s). The ED50 and the 95% confidence intervals of drug which eliminated the tonic-extensor component of the convulsion in 50% of the animals was calculated by the method of Litchfield and Wilcoxon (J. Pharmacol. Exp. Ther. 1949, 96, 99). Drug induced motor toxicity was examined using the inverted screen test which measures the ability of mice to hold onto a screen which has been turned vertical. Control animals will be able to hold on.

[6] = protection against maximal electroshock induced seizures (corneal electroshock, tonic-extensor component); type: in vivo, male CF-1 type mice; settings: Mus musculus, ip, 0.25 h; mice, intraperitoneal, saline carrier, 15 min before electroshock (30 mA, 50 Hz, 0.1 s)
Procedure: as §1

## CC12NC(Cc3ccccc31)c1ccccc12 (single isomer, unassigned) [MK-801]
[1]
  affinity for phencyclidine binding sites: high affinity
[2]
  sedative side effects: essentially free of the usual sedative side effects

## NC(=O)N1c2ccccc2C=Cc2ccccc21 [Carbamazepine, 5-carbamyl-5H-dibenzo[b,f]azepine]
[3]
  addicts taking the medication able to abstain from cocaine for a prescribed period: 59%
[4]
  acute and motor toxicity: low acute and motor toxicity
  anticonvulsant activity: good activity
  bioavailability: low bioavailability
  bone marrow suppression: implicated in bone marrow suppression
  toxic overdose reported: only one case of toxic overdose has been reported

## NC(=O)C12NC(Cc3ccccc31)c1ccccc12 (centres unmarked) [Compound 1, 5-Aminocarbonyl-10,11-dihydro-5H-dibenzo[a,d]cyclohepten-5,10-imine]
[5]; intraperitoneal, inverted screen test
  TD50: 50 to 55 mg/kg
[5]; motor toxicity TD50 versus maximal electroshock ED50, read-out: therapeutic index (TI)
  selectivity ratio: 5.6 to 6.2
[6]
  ED50: 8.9 mg/kg
